Experimental data taken from patent EP1344776A1, “5- 2-hydroxy-3-[1-(3-trifluoromethylphenyl)-cyclopropyl]-propionylamino -phtalide and 6- 2-hydroxy-3-[1-(3-trifluoromethylphenyl)-cyclopropyl]-propionylamino -4-methyl-2,3-benzoxazin-1-one derivatives with progesterone receptor modulating activity for use in fertility control, hormone replacement …” (Schering Aktiengesellschaft, priority 2002, dated 2003).

Assays:
[1] = test system: hPR-A; assay: PR-A transcription assay (MTV-LUC reporter, SK-N-MC cells); assay type: cell-based, human; conditions: 10^-7 mol/l test compound relative to R5020 10^-7 mol/l, 24 hours, 0.1 µM
Experimental: (§1) The method for screening for PR isoform-specific progestins according to the present invention is carried out with first and second SK-N-MC cells stably transfected with a plasmid expressing the hPR-A (first cells) or the hPR-B (second cells) and the LUC reporter gene linked to the hormonally responsive MTV promoter.
(§2) For the transcription assay, the cells are seeded onto 96-well dishes (2x 10^4 cells/dish) and cultured in a medium as described above, with the exception that the FCS is replaced by a 3 % charcoal stripped FCS. 48 hours later, cells are contacted with prediluted test compounds. For determination of agonistic activity, cells are cultured in the presence of increasing concentrations (10^-6 to 10^-11 mol/l) of test progestins. As a positive control for reporter gene induction cells are treated with 10^-6 to 10^-11 mol/l R5020 (promegestone). As a negative control for reporter gene induction, cells are cultured in 1 % ethanol.
(§3) Evaluation of the response gives the efficacy [%], and evaluation of the EC50 values gives the potency [nM]. Calculation of the agonistic activity is conducted as follows:
(§4) The LUC activity [%] for the measured data points is calculated as follows: relative LUC activity [%] = 100 x((response 10)^-6 (to 10)^-11 mol/l test compound - CO)/(CI - CO) [formula] wherein CI = 100 % stimulation (R5020, 10^-7 mol/l) and CO = 0 % stimulation (ethanol, 1 %).
(§5) Thus, the efficacy [%] is calculated according to: efficacy [%] = 100 x((response 10)^-7 mol/l test compound - CO)/(CI - CO) [formula]
(§6) The potency [nM], i.e. the EC50, is determined graphically.

[2] = test system: hPR-B; assay: PR-B transcription assay (MTV-LUC reporter, SK-N-MC cells); assay type: cell-based, human; conditions: 10^-7 mol/l test compound relative to R5020 10^-7 mol/l, 24 hours, 0.1 µM
Experimental: as §1
The cells are cultured in Minimum Essential Medium with Earl's Salts (S-MEM, without L-glutamine; Gibco BRL, no. 21090-022), supplemented with 10 % fetal calf serum (FCS), penicillin 100U/streptomycin 100 µg/ml (Biochrom, no. A2213), L-glutamine 4 mmol/l (Gibco BRL, no. 25030-024), sodium pyruvate 1 mmol/l (Biochrom, no. L0473) and 1x non-essential amino acids (Biochrom, no. K0293) at a temperature of 37 °C and in an atmosphere of 5 % carbon dioxide.
as §2
After incubation with test progestins for 24 hours, the medium is removed and cells are lysed with 20 µl of lysis buffer (Luciferase Assay System E 153A; Promega) and under agitation of the plate for 10 min. After addition of 30 µl of luciferase reagent (Luciferase Assay System E 151A + 152A; Promega) within 30 seconds per plate, the activity of the luciferase reporter gene product is determined in the cell lysates by means of a Microlite ML 3000 microtiter plate luminometer (Dynatech) in cycle mode.
as §3, §4, §5, §6

[3] = test system: rat mammary epithelium; assay: Bioassay on proliferating/differentiating effects in the rat mammary epithelium (whole mount staining); assay type: in vivo; conditions: terminal end buds
Experimental: The object of this test is to evaluate the effect of progestins on the development of the mammary gland, in particular on the formation of terminal end buds in the mammary gland in estrogen primed rats.
Premature female rats (Wistar Han, SPF) are ovariectomized at the age of 21 days, 4 to 6 days before treatment start. The animals are treated for 6 days with standard estrogen (estrone, 70 µg/kg) and the test progestin (application volume: 0.1 ml/50g body weight; vehicle: benzylbenzoate/castor oil (1+4 v/v); subcutaneous). Control groups are e.g.: vehicle, estrone without progestin, estradiol together with a known progestin, e.g. R5020 (promegestone). After the 6-day treatment the animals are killed with carbon dioxide.
For the whole mount staining, animals are shaved in the left abdominal inguinal mammary region, which is cut from the body together with the skin. For the histological/immunohistochemical analyses the right abdominal inguinal mammary gland is cut from the body together with the connective tissue adhered thereto and fixed in 3.7 % formalin in PBS (phosphate buffer saline; without Ca^2+/Mg^2+).
The preparations are fixed over night in alcohol-formalin according to the method of Tellyesniczky (see below). Then the mammary gland tissue and subcutis adhered thereto are stripped from the cutis and the preparations are again fixed over night. The further steps are as follows: ethanol 70 %: 1.5 hours; acetone: 3 × 1.5 hours; acetone: over night; isopropanol: 1.5 hours; ethanol 96 %: 2 hours; hematoxylin-iron: 3 hours; VE water: first rinse the preparations and then 2 × 0.5 hours; ethanol 70 %: over night; ethanol 80 %: 1.5 hours; ethanol 96 %: 1.5 hours; isopropanol: 1.5 hours. The preparations are then moved to petri dishes and left in toluene for approximately 1 hour, i.e. until they have stopped to swim up. Then the preparations are treated with cedarwood oil (Merck, no. 1.06965). The incubation times above are minimum times and can be extended. In particular, incubation in ethanol 70 % after fixation can be extended to at least 2.5 weeks.
Preparation of the solutions necessary for the whole mount staining: • a) Alcohol-formalin according to Tellyesniczky: formaldehyde 37%: 81.8 ml, ethanol 70 %: 1636 ml, glacial acetic acid (to be added shortly before use): 81.8 ml (total: 1800 ml). • b) Hematoxylin mother solution: Hematoxylin (Merck, no. 1.15938): 10 g, ethanol 96 %: 100 ml. The solution must stand for 48 hours at 37 °C before use. It can be kept in a dark place for almost unlimited time. • c) Hematoxylin-iron solution for use: hematoxylin mother solution (filtered): 15.2 ml, ethanol 96 %: 1374 ml, FeCl3 x 6 H2O (s. 4): 91.1 ml, 1 mol/l HCl: 220 ml (total: 1700 ml); adjustment to a pH of 1.25 with 2mol/l NaOH. • d) FeCl3 x 6 H2O solution: FeCl3 x 6 H2O (Merck, no. 1.03943): 1.07 g, VE water: 90.2 ml, HCl: 37 %: 0.92 ml (total: 91.1 ml).
By means of a 40-fold magnification, the terminal end buds near the nipple in direction of the tail are counted. The area to be investigated should be about 1.8 mm^2. For well-differentiated preparations this area may be reduced, with at least 250 buds to be counted. After counting, the number of end buds per 1 mm^2 is calculated. […]

[4] = test system: female rats; assay: Ovulation inhibition test in rat; assay type: in vivo; conditions: rat (Table 1-b); read-out: Ovulation Inhibition (rat) [ED50]
Experimental: Before the treatment is started, two […] cycles of female rats (weight: 190 to 210 g) were monitored. Only animals having a regular 4 day-cycle are used for the subsequent test. Starting in the metoestrus, the test compound is administered for 4 days (day 1 to 4) and the cycle is controlled thereafter.
For subcutaneous application, the test compounds are dissolved in benzyl benzoate/castor oil (1+9 v/v) and the daily dose is administered in a volume of 1 ml/kg body weight.
For peroral application, the test compounds are suspended in a carrier liquid (85 mg Myrj^R in 100 ml 0.9 % w/v NaCl solution) and the daily dose is administered in a volume of 2 ml/kg body weight.
On day 4, after the application of the test compound, those animals having estrus or metoestrus are ovariectomized under ether anesthesia on one side. Preparations of the tubes are prepared and they are investigated for ova by means of microscope. On day 5 all animals (intact and partly ovariectomized) are killed with carbon dioxide, the tubes are preserved and analyzed in the same way. It is then determined, as a percentage, in how many animals ovulation was inhibited.

[5] = test system: Pregnant rats (Wistar Han, SPF); assay: Pregnancy maintenance test in rat; assay type: in vivo; conditions: ovariectomized pregnant rats, with estrone
Description: In rats, castration induces termination of pregnancy. Progestins (combined with estrogens) are capable of maintaining pregnancy in castrated animals. However, the degree of pregnancy maintenance in castrated rats is optimal only in a defined dose range. Therefore, higher as well as lower doses generally induce a weaker effect. Accompanying treatment with defined doses of estrone (E1) increases the pregnancy maintaining effect of progestins.
Pregnant rats (Wistar Han, SPF) of 190 to 220 g (5 to 8 animals per dose) are ovariectomized on day 8 of pregnancy, 2 hours after the first substance administration. From day 8 to day 14, rats are daily treated with test progestin in combination with a standard dose of E1. One day later, animals are killed with carbon dioxide. For each animal, the number of living and dead fetuses is determined according to the heartbeat of the embryos. In case of empty uteri, the number of implantation sites is determined by means of staining with a 10 % ammonium sulfide solution.
S.c. (subcutaneous) application: The test progestin is dissolved in benzyl benzoate/castor oil (1+4 v/v), and the daily dose is administered in a volume of 1 ml/kg body weight.
P.o. (peroral) application: The test progestin is suspended in a carrier liquid (85 mg Myrj^R in 100 ml 0.9 % w/v NaCl solution), and the daily dose is administered in a volume of 2 ml/kg body weight.
I.p. (intraperitoneal) application: The test progestin is dissolved in propylene glycol and charged in miniature osmotic pumps (type 2001, 1.0 µl/h, 7 days), which are placed in the abdominal cavity of the rat.
The standard dose of estrone is 0.005 mg/kg body weight s.c. and is dissolved in benzyl benzoate/castor oil ([…]).
It is determined the pregnancy maintenance per animal [%], the pregnancy maintenance per dose (median of single values) and the ED50 (dose, at which pregnancy is maintained in 50 % of the animals; 100 % corresponds to control animals that are not ovariectomized).

Cc1noc(=O)c2ccc(NC(=O)C(O)(CC3(c4cccc(C(F)(F)F)c4F)CC3)C(F)(F)F)cc12 (single isomer, unassigned; (+)) [((+)-2), (+)-6-{2-hydroxy-3-[1-(2-fluoro-3-trifluoromethylphenyl)-cyclopropyl]-2-trifluoromethyl-propionylamino}-4-methyl-2,3-benzoxazin-1-one]
PR-A agonism efficacy [1]: 99.2%
PR-B agonism efficacy [2]: 67.5%

Cc1noc(=O)c2ccc(NC(=O)C(C)(O)CC3(c4cccc(C(F)(F)F)c4)CC3)cc12 (single isomer, unassigned; (+)) [((+)-3), (+)-6-{2-hydroxy-3-[1-(3-trifluoromethylphenyl)-cyclopropyl]-2-methyl-propionylamino}-4-methyl-2,3-benzoxazin-1-one]
PR-A agonism efficacy [1]: 94%
PR-B agonism efficacy [2]: 71%

O=C1OCc2cc(NC(=O)C(O)(CC3(c4cccc(C(F)(F)F)c4F)CC3)C(F)(F)F)ccc21 (single isomer, unassigned; (+)) [((+)-4), (+)-5-{2-hydroxy-3-[1-(2-fluoro-3-trifluoromethylphenyl)-cyclopropyl]-2-trifluoromethyl-propionylamino}-phthalide]
PR-A agonism efficacy [1]: 100%
PR-B agonism efficacy [2]: 82%

CCC(=O)[C@@]1(C)CC[C@H]2[C@@H]3CCC4=CC(=O)CCC4=C3CC[C@@]21C [R5020, promegestone, reference compound]
Mammary gland, whole mount staining (rat) [equi-efficient dose] ([3]; dose pair with 0.1 mg/kg R5020, independent test): 0.1 mg/kg
Mammary gland, whole mount staining (rat) [equi-efficient dose] ([3]; dose pair with 0.3 mg/kg R5020, independent tests): 0.3 mg/kg
ED50 [4]: 0.06 mg/kg
Maintenance of pregnancy (rat) [ED50] [5]: 0.1 mg/kg
